Data on four compounds can be found in publication PMC9736855, “Discovery of 3-Amino-1H-pyrazole-Based Kinase Inhibitors to Illuminate the Understudied PCTAIRE Family” (International Journal of Molecular Sciences, 2022).

In data set [1] the target is T1, CDK1/Cyclin B1 (Homo sapiens, UniProt P06493).
T1 construct: Full-length kinases were obtained as plasmids cloned in frame with a terminal NanoLuc-fusion; CS1810C170 (CCNB1); host or cells: HEK293T
Briefly: NanoBRET. It is filed as cell-based. Conditions: read-out: NanoBRET EC50 ± SEM CDK1/Cyclin B1. The procedure, abridged: (§1)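 Cells (HEK293T) are transfected with full-length kinase–NanoLuc plasmids and allowed 20 h expression. Trypsinized cells are added to inhibitor dilutions plus tracer at KD,app and equilibrated 2 h at 37 °C/5% CO2. Luminescence at 450 and 610 nm gives BRET; EC50 from a normalized fit.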

The nature of data set [2]: Microsomal stability assay. Type of data set: in vitro ADME, Sprague-Dawley rats. The conditions noted are these: rat liver microsomes, 10 µM, 37 °C, 60 min. The procedure: The lead structure 1 was not included in this assay due to its promiscuous behaviour. Since 1 is presumably not suitable as a tool compound to study the effect of selective kinase inhibition in an in vivo application, we focused on the newly synthesized compounds 21i and 43d. The compounds were tested against an activated microsome mix derived from the liver of Sprague-Dawley rats, as previously reported. 21i and 43d were incubated at 37 °C for 60 min and the amount of unmetabolized compound was determined in 15 min steps, using high-performance liquid chromatography (HPLC).
The solubilized test compound (5 μL, final concentration 10 µM) was preincubated at 37 °C in 432 μL of phosphate buffer (0.1 M, pH 7.4) together with 50 μL NADPH regenerating system (30 mM glucose 6 phosphate, 4 U/mL glucose 6 phosphate dehydrogenase, 10 mM NADP, 30 mM MgCl2). After 5 min, the reaction was started by the addition of 13 μL of microsome mix from the liver of Sprague−Dawley rats (Invitrogen; 20 mg protein/mL in 0.1 M phosphate buffer) in a shaking water bath at 37 °C. The reaction was stopped by adding 500 μL of ice cold methanol at 0, 15, 30 and 60 min. […] The amounts of the test compound were quantified by an external calibration curve. Data are expressed as the mean ± SEM remaining compound from three independent experiments.

In data set [3] the target is T2, MAPK8 (Homo sapiens, UniProt P45983).
T2 construct: purchased in-house DSF panel (SGC Frankfurt)
T2 sequence (P45983 1-364): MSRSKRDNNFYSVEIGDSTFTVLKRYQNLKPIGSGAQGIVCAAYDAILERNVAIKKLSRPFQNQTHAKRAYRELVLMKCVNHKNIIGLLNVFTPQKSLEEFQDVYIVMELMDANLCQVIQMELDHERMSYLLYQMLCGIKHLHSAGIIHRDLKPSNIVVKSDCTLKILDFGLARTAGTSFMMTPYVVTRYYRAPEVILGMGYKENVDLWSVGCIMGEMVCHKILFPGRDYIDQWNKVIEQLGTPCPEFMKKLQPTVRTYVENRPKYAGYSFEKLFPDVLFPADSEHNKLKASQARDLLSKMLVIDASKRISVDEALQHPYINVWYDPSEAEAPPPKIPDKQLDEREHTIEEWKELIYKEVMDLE
Nature of the data set: DSF. It is filed as binding.
Method: (§2) Recombinant protein kinase domains with a concentration of 2 μM were mixed with a 10 μM compound solution in DMSO, 20 mM HEPES, pH 7.5, and 500 mM NaCl. SYPRO Orange (5000×, Invitrogen) was added as a fluorescence probe (1 µl per mL). Subsequently, temperature-dependent protein unfolding profiles were measured, using the QuantStudio™ 5 realtime PCR machine (Thermo Fisher, Waltham, MA, USA). […] The temperature was raised with a step rate of 3 °C per minute. Data points were analyzed with the internal software (Thermal Shift SoftwareTM Version 1.4, Thermo Fisher) using the Boltzmann equation to determine the inflection point of the transition curve [56]. Differences in melting temperature are given as ΔTm values in °C. Measurements were performed in duplicates.

Data set [4] has as its target T3, MAPKAPK2 (Homo sapiens, UniProt P49137).
T3 construct: purchased in-house DSF panel (SGC Frankfurt)
Nature of the data set: DSF. It is filed as binding.

For data set [5], the target named is T4, NEK7 (Homo sapiens, UniProt Q8TDX7).
T4 construct: purchased in-house DSF panel (SGC Frankfurt)
T4 sequence (Q8TDX7 whole entry): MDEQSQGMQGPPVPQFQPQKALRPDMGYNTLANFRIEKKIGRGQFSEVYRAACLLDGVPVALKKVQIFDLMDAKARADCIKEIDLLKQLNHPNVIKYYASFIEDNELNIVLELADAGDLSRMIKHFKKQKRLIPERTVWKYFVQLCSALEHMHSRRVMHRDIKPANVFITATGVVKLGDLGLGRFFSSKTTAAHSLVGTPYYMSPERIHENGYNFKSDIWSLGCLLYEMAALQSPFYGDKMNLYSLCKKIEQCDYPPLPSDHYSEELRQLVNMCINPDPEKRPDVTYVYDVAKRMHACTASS
Nature of the data set: DSF. Type of data set: binding.
Method: as §2

Data set [6] deals with RPS6KA5. Nature of the data set: DSF. Type of data set: binding.
Method: as §2
In data set [7] the test system is PCTAIRE family. Briefly: NanoBRET. Type of data set: cell-based. Conditions: read-out: cellular potency, other members of the PCTAIRE family. In outline: as §1
Data set [8] concerns the target GSK3B (Homo sapiens, UniProt P49841). Briefly: NanoBRET. Set-up: Full-length kinases were obtained as plasmids cloned in frame with a terminal NanoLuc-fusion; host or cells: HEK293T. It is filed as cell-based. The method, then: The assay was performed as described previously. In brief: Full-length kinases were obtained as plasmids cloned in frame with a terminal NanoLuc-fusion (Promega, Madison, WI, USA), as specified in table (Table S6). Plasmids were transfected into HEK293T cells using FuGENE HD (Promega, E2312) and proteins were allowed to express for 20h. Serially diluted inhibitor and NanoBRET Kinase Tracer (Promega) at a concentration determined previously as the KD,app (Table S5) were pipetted into white 384-well plates (Greiner 781207) using an Echo acoustic dispenser (Labcyte, San Jose, CA, USA). The corresponding protein-transfected cells were added and reseeded at a density of 2.5 × 10^5 cells/mL after trypsinization and resuspending in Opti-MEM without phenol red (Life Technologies, Carlsbad, CA, USA). The system was allowed to equilibrate for 2 h at 37 °C/5% CO2 prior to BRET measurements. To measure BRET, NanoBRET NanoGlo Substrate + Extracellular NanoLuc Inhibitor (Promega, N2540) was added as per the manufacturer’s protocol, and filtered luminescence was measured on a PHERAstar plate reader (BMG Labtech, Ortenberg, Germany) equipped with a luminescence filter pair (450 nm BP filter (donor) and 610 nm LP filter (acceptor)). […]

Data set [9] deals with T5, CDK2 (Homo sapiens, UniProt P24941).
T5 construct: purchased in-house DSF panel (SGC Frankfurt)
The conditions noted are these: cited from earlier work.

The target of data set [10] is CDK5. The conditions noted are these: cited from earlier work.
Data set [11] addresses T6, JNK3 (Homo sapiens, UniProt P53779).
T6 construct: Recombinant protein kinase domains with a concentration of 2 μM were mixed; made in house
The arrangement: method as in PMID 19053485. The conditions noted are these: cited from earlier work.

Data set [12] has as its system 359 wild-type kinases. The arrangement: method as in PMID 19053485. The conditions noted are these: kinome-wide screen; cited from earlier work.

SMILES strings stand for the structures.

T1 sequence (P06493 whole entry, the tested form may be a part): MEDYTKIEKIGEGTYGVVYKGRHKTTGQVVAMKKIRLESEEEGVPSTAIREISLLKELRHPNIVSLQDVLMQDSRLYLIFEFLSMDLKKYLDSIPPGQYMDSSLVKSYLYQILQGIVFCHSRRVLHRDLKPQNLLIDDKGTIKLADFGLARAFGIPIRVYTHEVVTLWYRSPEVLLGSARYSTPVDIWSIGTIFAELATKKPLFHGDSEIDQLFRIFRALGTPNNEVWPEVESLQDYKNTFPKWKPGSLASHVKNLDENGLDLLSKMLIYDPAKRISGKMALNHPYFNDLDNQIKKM
T1 sequence (P14635 whole entry partner, the tested form may be a part): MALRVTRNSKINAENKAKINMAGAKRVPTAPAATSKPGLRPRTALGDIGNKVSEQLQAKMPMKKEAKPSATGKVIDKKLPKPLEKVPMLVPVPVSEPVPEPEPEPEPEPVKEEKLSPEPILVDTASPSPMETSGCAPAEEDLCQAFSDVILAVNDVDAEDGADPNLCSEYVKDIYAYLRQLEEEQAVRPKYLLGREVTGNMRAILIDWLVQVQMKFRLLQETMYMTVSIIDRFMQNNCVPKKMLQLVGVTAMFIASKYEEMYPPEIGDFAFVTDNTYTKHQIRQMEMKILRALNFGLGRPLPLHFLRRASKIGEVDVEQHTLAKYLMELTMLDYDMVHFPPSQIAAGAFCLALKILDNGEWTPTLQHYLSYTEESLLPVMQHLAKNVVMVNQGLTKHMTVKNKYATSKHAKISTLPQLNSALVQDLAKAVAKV
T3 sequence (P49137 64-325): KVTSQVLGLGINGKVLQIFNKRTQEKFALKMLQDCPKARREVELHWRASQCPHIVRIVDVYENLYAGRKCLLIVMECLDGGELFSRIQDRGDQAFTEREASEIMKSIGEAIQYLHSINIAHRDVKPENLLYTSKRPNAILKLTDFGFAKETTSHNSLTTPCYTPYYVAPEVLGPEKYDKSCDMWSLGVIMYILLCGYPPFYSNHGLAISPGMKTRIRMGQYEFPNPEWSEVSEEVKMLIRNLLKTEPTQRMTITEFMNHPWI
Chain of GSK3B (P49841 whole entry, the tested form may be a part): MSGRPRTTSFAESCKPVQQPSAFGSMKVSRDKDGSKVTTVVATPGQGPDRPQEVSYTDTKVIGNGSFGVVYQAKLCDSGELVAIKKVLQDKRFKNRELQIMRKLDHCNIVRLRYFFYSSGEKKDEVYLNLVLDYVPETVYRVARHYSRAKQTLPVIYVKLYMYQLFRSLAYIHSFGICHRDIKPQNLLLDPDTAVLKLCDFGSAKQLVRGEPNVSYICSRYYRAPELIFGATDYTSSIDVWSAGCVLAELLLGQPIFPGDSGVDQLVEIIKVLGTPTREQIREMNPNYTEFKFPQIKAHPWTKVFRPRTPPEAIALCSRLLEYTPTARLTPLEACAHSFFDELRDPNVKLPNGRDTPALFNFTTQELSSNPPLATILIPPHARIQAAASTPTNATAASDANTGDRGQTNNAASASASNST
T6 sequence (P53779 64-359 limits assumed): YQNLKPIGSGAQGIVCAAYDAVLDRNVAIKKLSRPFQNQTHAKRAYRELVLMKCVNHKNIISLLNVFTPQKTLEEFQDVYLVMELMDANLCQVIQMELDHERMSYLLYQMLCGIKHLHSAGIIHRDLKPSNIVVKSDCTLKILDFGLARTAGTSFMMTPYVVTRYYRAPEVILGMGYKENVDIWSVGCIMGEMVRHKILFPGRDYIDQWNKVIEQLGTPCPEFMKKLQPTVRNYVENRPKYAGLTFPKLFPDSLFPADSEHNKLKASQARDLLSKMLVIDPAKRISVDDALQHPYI

Regarding `COC(=O)c1cc(Nc2ccnc(NCc3ccc(NC(=O)OC(C)(C)C)cc3)n2)[nH]n1` [21i, methyl 5-((2-((4-((tert-butoxycarbonyl)amino)benzyl)amino)pyrimidin-4-yl)amino)-1H-pyrazole-3-carboxylate], the EC50 in [1] worked out at 9.3 ± 5.79 µM. For the same compound, in data set [2], the unmetabolized compound detected came to 16%.

Regarding `CC(C)OC(=O)c1cc(Nc2ccnc(NCc3ccc(NC(=O)OC(C)(C)C)cc3)n2)n[nH]1` [42d, isopropyl 3-((2-((4-((tert-butoxycarbonyl)amino)benzyl)amino)pyrimidin-4-yl)amino)-1H-pyrazole-5-carboxylate], the “ΔTm MAPK8” value in [3] is -0.8 °C. In addition, the “ΔTm MAPKAPK2” value in data set [4] was -0.3 °C. The “ΔTm NEK7” value in data set [5] was -1.7 °C. Moreover, in [6], the “ΔTm RPS6KA5” value came to 0.8 °C.

Regarding `CC(C)(C)OC(=O)Nc1ccc(CNc2nccc(Nc3cc(C(=O)OC(C)(C)C)[nH]n3)n2)cc1` [43d, tert-butyl 3-((2-((4-((tert-butoxycarbonyl)amino)benzyl)amino)pyrimidin-4-yl)amino)-1H-pyrazole-5-carboxylate], the EC50 in data set [7] fell in the range of 20 to 120 nM. Further, in [3], the “ΔTm MAPK8” value was -0.1 °C. Moreover, the “ΔTm MAPKAPK2” value in data set [4] was 0.2 °C. Also, the “ΔTm NEK7” value in [5] was -1.0 °C. In addition, the unmetabolized compound detected in data set [2] is 79%. In addition, the “NanoBRET EC50 GSK3B” value in data set [8] was “negligible”. Moreover, the “ΔTm RPS6KA5” value in [6] came to 1.7 °C.

As to `N#CCc1ccc(Nc2nccc(Nc3cc(C4CC4)[nH]n3)n2)cc1` [compound 1, reference compound], in [1], the EC50 was determined as 0.0631 ± 0.0104 µM. In addition, the dissociation constant Kd in [9] is 4.6 nM; in [10], 27.6 nM; in [11], 26.1 nM. In addition, in data set [12], the “number of kinases targeted of 359 wild-type kinases” value is on record as 337.
